Test results taken from patent US6737383B1, “Herbicidal oxadiazolidines” (priority 1999, dated 2004).

Assays:
pigweed = assay: Test B pre/postemergence pigweed; format: in vivo, Amaranthus retroflexus
In short: (§1)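 Response is a visual 0-to-10 score relative to untreated plants, where 0 means no effect and 10 means complete control, taken twelve to sixteen days after application. Treatments went onto soil at planting and onto foliage of 1- to 4-leaf plants, using a surfactant-containing non-phytotoxic solvent.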

cocklebur = assay: Test B pre/postemergence cocklebur; format: in vivo, Xanthium strumarium
In short: as §1

blackgrass = assay: Test B pre/postemergence blackgrass; format: in vivo, Alopecurus myosuroides
In short: as §1

morningglory = assay: Test B pre/postemergence morningglory; format: in vivo, Ipomoea hederacea
In short: as §1

bamyardgrass = assay: Test B flood test barnyardgrass; format: in vivo, Echinochloa crus-galli
In short: (§2)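 Read-out is a visual response score from 0 (no effect) to 10 (complete control), assigned by comparison with untreated controls. Treatment was applied at the 2-leaf stage, and plants stayed in the greenhouse for twelve to sixteen days before scoring.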

wheat = assay: Test B pre/postemergence wheat; format: in vivo, Triticum aestivum; details: Preemergence
In short: as §1

purple nutsedge = assay: Test B pre/postemergence purple nutsedge; format: in vivo, Cyperus rotundus; details: Postemergence
In short: as §1

giant foxtail = assay: Test B pre/postemergence giant foxtail; format: in vivo, Setaria faberii
In short: as §1

duck salad = assay: Test B flood test duck salad; format: in vivo, Heteranthera limosa
In short: as §2

rice = assay: Test B flood test rice; format: in vivo, Oryza sativa
In short: as §2

wild oat = assay: Test B pre/postemergence wild oat; format: in vivo, Avena fatua; details: Preemergence
In short: as §1

crabgrass = assay: Test B pre/postemergence crabgrass; format: in vivo, Digitaria sanguinalis
In short: as §1

sugar beet = assay: Test B pre/postemergence sugar beet; format: in vivo, Beta vulgaris; details: Preemergence
In short: as §1

corn = assay: Test B pre/postemergence corn; format: in vivo, Zea mays
In short: as §1

soybean = assay: Test B pre/postemergence soybean; format: in vivo, Glycine max; details: Preemergence
In short: as §1

rape = assay: Test B pre/postemergence rape; format: in vivo, Brassica napus
In short: as §1

velvetleaf = assay: Test B pre/postemergence velvetleaf; format: in vivo, Abutilon theophrasti; details: Preemergence
In short: as §1

smallflower flatsedge = assay: Test B flood test smallflower flatsedge; format: in vivo, Cyperus difformis
In short: as §2

surinam grass = assay: Test B pre/postemergence surinam grass; format: in vivo, Brachiaria decumbens
In short: as §1

bedstraw = assay: Test B pre/postemergence bedstraw; format: in vivo, Galium aparine
In short: as §1

[1] = Preemergence, Rate 31 g/ha, visual rating, scale 0 to 10 (0 no effect, 10 complete control)
[2] = Preemergence, Rate 62 g/ha, scale of 0 to 10 where 0 is no effect and 10 is complete control
[3] = Preemergence, Rate 250 g/ha, scale of 0 to 10 where 0 is no effect and 10 is complete control
[4] = Rate 31 g/ha, Postemergence, scale 0 to 10
[5] = Rate 125 g/ha, Preemergence, scale of 0 to 10 where 0 is no effect and 10 is complete control
[6] = Rate 62 g/ha, Postemergence, scale of 0 to 10 where 0 is no effect and 10 is complete control
[7] = Rate 125 g/ha, Postemergence, scale 0 to 10
[8] = Rate 62 g/ha, headed Pre-emergence (flood test species), scale 0 to 10 (0 no effect, 10 complete control)
[9] = Rate 125 g/ha, Pre-emergence, flood test species, scale 0 to 10 where 0 is no effect and 10 is complete control
[10] = Rate 250 g/ha, Pre-emergence, flood-test species, scale 0 to 10, 0 is no effect, 10 is complete control
[11] = Rate 500 g/ha, Pre-emergence, flood test species, scale 0 to 10 (0 no effect, 10 complete control)
[12] = Rate 31 g/ha, visual rating, scale 0 to 10 (0 no effect, 10 complete control)
[13] = Rate 62 g/ha, scale of 0 to 10 where 0 is no effect and 10 is complete control
[14] = Rate 250 g/ha, scale of 0 to 10 where 0 is no effect and 10 is complete control
[15] = Rate 125 g/ha, scale of 0 to 10 where 0 is no effect and 10 is complete control

CC(C)N(C(=O)n1oc(=O)n(CCc2ccccc2)c1=O)c1ccc(F)cc1 [Compound 250]
3: Redroot pigweed plant response rating (pigweed; [3]) | Redroot pigweed plant response rating (pigweed; [5]) | Plant response rating (0 to 10; 0 is no effect, 10 is complete control), Rape (rape; Rate 250 g/ha, Postemergence)
6: Plant response rating (0 to 10; 0 is no effect, 10 is complete control), Morningglory (morningglory; Rate 250 g/ha, Postemergence)
10: Giant foxtail plant response rating (giant foxtail; [3])
9: Plant response rating (0 to 10; 0 is no effect, 10 is complete control), Bedstraw (bedstraw; Rate 250 g/ha, Postemergence)
0: Redroot pigweed plant response rating (pigweed; [1]) | Redroot pigweed plant response rating (pigweed; [2]) | Redroot pigweed plant response rating (pigweed; [4]) | Plant response rating (0 to 10; 0 is no effect, 10 is complete control), Redroot pigweed (pigweed; Rate 250 g/ha, Postemergence) | Cocklebur plant response rating (cocklebur; [1]) | Cocklebur plant response rating (cocklebur; [2]) | Cocklebur plant response rating (cocklebur; [3]) | Cocklebur plant response rating (cocklebur; [4]) | Cocklebur plant response rating (cocklebur; [6]) | Cocklebur plant response rating (cocklebur; [7]) | Cocklebur plant response rating (cocklebur; [5]) | Blackgrass plant response rating (blackgrass; [1]) | Blackgrass plant response rating (blackgrass; [2]) | Blackgrass plant response rating (blackgrass; [3]) | Blackgrass plant response rating (blackgrass; [4]) | Blackgrass plant response rating (blackgrass; [6]) | Blackgrass plant response rating (blackgrass; [7]) | Blackgrass plant response rating (blackgrass; [5]) | Morningglory plant response rating (morningglory; [1]) | Morningglory plant response rating (morningglory; [2]) | Morningglory plant response rating (morningglory; [3]) | Morningglory plant response rating (morningglory; [5]) | Barnyardgrass plant response rating (bamyardgrass; [8]) | Barnyardgrass plant response rating (bamyardgrass; [9]) | Barnyardgrass plant response rating (bamyardgrass; [10]) | Barnyardgrass plant response rating (bamyardgrass; [11]) | Wheat plant response rating (wheat; [12]) | Wheat plant response rating (wheat; [13]) | Wheat plant response rating (wheat; [14]) | Wheat plant response rating (wheat; [15]) | Nutsedge plant response rating (purple nutsedge; Rate 31 g/ha, scale 0 to 10) | Plant response rating (0 to 10; 0 is no effect, 10 is complete control), Nutsedge (purple nutsedge; Rate 250 g/ha) | Giant foxtail plant response rating (giant foxtail; [4]) | Plant response rating (0 to 10; 0 is no effect, 10 is complete control), Giant foxtail (giant foxtail; Rate 250 g/ha, Postemergence) | Ducksalad plant response rating (duck salad; [8]) | Ducksalad plant response rating (duck salad; [9]) | Ducksalad plant response rating (duck salad; [10]) | Rice plant response rating (rice; [8]) | Rice plant response rating (rice; [9]) | Rice plant response rating (rice; [10]) | Rice plant response rating (rice; [11]) | Wild oats plant response rating (wild oat; [12]) | Wild oats plant response rating (wild oat; [13]) | Wild oats plant response rating (wild oat; [14]) | Wild oats plant response rating (wild oat; [15]) | Crabgrass plant response rating (crabgrass; [1]) | Crabgrass plant response rating (crabgrass; [4]) | Plant response rating (0 to 10; 0 is no effect, 10 is complete control), Crabgrass (crabgrass; Rate 250 g/ha, Postemergence) | Sugarbeets plant response rating (sugar beet; [12]) | Sugarbeets plant response rating (sugar beet; [13]) | Sugarbeets plant response rating (sugar beet; [15]) | Corn plant response rating (corn; [1]) | Corn plant response rating (corn; [2]) | Corn plant response rating (corn; [3]) | Corn plant response rating (corn; [4]) | Corn plant response rating (corn; [6]) | Corn plant response rating (corn; [7]) | Corn plant response rating (corn; [5]) | Plant response rating (0 to 10; 0 is no effect, 10 is complete control), Corn (corn; Rate 250 g/ha, Postemergence) | Soybean plant response rating (soybean; [12]) | Soybean plant response rating (soybean; [13]) | Soybean plant response rating (soybean; [14]) | Soybean plant response rating (soybean; [15]) | Rape plant response rating (rape; [1]) | Rape plant response rating (rape; [2]) | Rape plant response rating (rape; [3]) | Rape plant response rating (rape; [4]) | Rape plant response rating (rape; [5]) | Velvetleaf plant response rating (velvetleaf; [12]) | Velvetleaf plant response rating (velvetleaf; [13]) | Velvetleaf plant response rating (velvetleaf; [14]) | Velvetleaf plant response rating (velvetleaf; [15]) | S. Flatsedge plant response rating (smallflower flatsedge; [8]) | S. Flatsedge plant response rating (smallflower flatsedge; [9]) | S. Flatsedge plant response rating (smallflower flatsedge; [10]) | S. Flatsedge plant response rating (smallflower flatsedge; [11]) | B. signalgrass plant response rating (surinam grass; [1]) | B. signalgrass plant response rating (surinam grass; [2]) | B. signalgrass plant response rating (surinam grass; [3]) | B. signalgrass plant response rating (surinam grass; [4]) | B. signalgrass plant response rating (surinam grass; [6]) | B. signalgrass plant response rating (surinam grass; Rate 125 g/ha, Postemergence, scale 0 (no effect) to 10 (complete control)) | B. signalgrass plant response rating (surinam grass; [5]) | Plant response rating (0 to 10; 0 is no effect, 10 is complete control), B. signalgrass (surinam grass; Rate 250 g/ha, Postemergence) | Bedstraw plant response rating (bedstraw; [1]) | Bedstraw plant response rating (bedstraw; [2]) | Bedstraw plant response rating (bedstraw; [3]) | Bedstraw plant response rating (bedstraw; [4]) | Bedstraw plant response rating (bedstraw; [6]) | Bedstraw plant response rating (bedstraw; [7]) | Bedstraw plant response rating (bedstraw; [5])
2: Plant response rating (0 to 10; 0 is no effect, 10 is complete control), Blackgrass (blackgrass; Rate 250 g/ha, Postemergence) | Crabgrass plant response rating (crabgrass; [2])
8: Giant foxtail plant response rating (giant foxtail; [2]) | Giant foxtail plant response rating (giant foxtail; [5]) | Crabgrass plant response rating (crabgrass; [3])
1: Plant response rating (0 to 10; 0 is no effect, 10 is complete control), Cocklebur (cocklebur; Rate 250 g/ha, Postemergence)
5: Sugarbeets plant response rating (sugar beet; [14])
4: Morningglory plant response rating (morningglory; [4]) | Ducksalad plant response rating (duck salad; [11]) | Crabgrass plant response rating (crabgrass; [5])
7: Giant foxtail plant response rating (giant foxtail; [1])
